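All cell lines were grown in 96-well plates and treated with compound for 48 hours. GI50 = concentration required for 50% inhibition of growth. TGI is the concentration that stops growth completely.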
Experiments:
Test in all cases: NCI anticancer screen, dose series, 48 h
LOX IMVI melanoma = system: LOX IMVI melanoma
U251 CNS = system: U251 CNS
TK-10 renal = system: TK-10 renal
MOLT-4 leukemia = system: MOLT-4 leukemia
COLO 205 colon = system: COLO 205 colon
OVCAR-4 ovarian = system: OVCAR-4 ovarian
UACC-257 melanoma = system: UACC-257 melanoma
RPMI-8226 leukemia = system: RPMI-8226 leukemia
HCT-116 colon = system: HCT-116 colon
KM12 colon = system: KM12 colon
SR leukemia = system: SR leukemia
DU-145 prostate = system: DU-145 prostate
SF-539 CNS = system: SF-539 CNS
RXF 393 renal = system: RXF 393 renal
UO-31 renal = system: UO-31 renal
SK-MEL-28 melanoma = system: SK-MEL-28 melanoma
NCI-H226 lung = system: NCI-H226 lung
HT29 colon = system: HT29 colon
HS 578T breast = system: HS 578T breast
M14 melanoma = system: M14 melanoma
HOP-62 NSCLC = system: HOP-62 NSCLC
OVCAR-8 ovarian = system: OVCAR-8 ovarian
NCI-H460 lung = system: NCI-H460 lung
MDA-MB-231 breast = system: MDA-MB-231 breast
T-47D breast = system: T-47D breast
NCI-H23 lung = system: NCI-H23 lung
NCI-H522 lung = system: NCI-H522 lung
SK-MEL-5 melanoma = system: SK-MEL-5 melanoma

Oc1cc(Cl)ccc1Oc1ccc(Cl)cc1Cl
GI50 (LOX IMVI melanoma): 1.87 µM
TGI (LOX IMVI melanoma): 3.86 µM
GI50 (U251 CNS): 2.73 µM
TGI (U251 CNS): 10.1 µM
GI50 (TK-10 renal): 3.47 µM
TGI (TK-10 renal): 9.59 µM
GI50 (MOLT-4 leukemia): 3.74 µM
TGI (MOLT-4 leukemia): 11.3 µM
GI50 (COLO 205 colon): 3.88 µM
TGI (COLO 205 colon): 13.3 µM
GI50 (OVCAR-4 ovarian): 2.79 µM
TGI (OVCAR-4 ovarian): 9.41 µM
GI50 (UACC-257 melanoma): 2.28 µM
TGI (UACC-257 melanoma): 6.48 µM
GI50 (RPMI-8226 leukemia): 2.02 µM
TGI (RPMI-8226 leukemia): 5.7 µM
GI50 (HCT-116 colon): 2.55 µM
TGI (HCT-116 colon): 6.43 µM
GI50 (KM12 colon): 3.6 µM
TGI (KM12 colon): 12.7 µM
GI50 (SR leukemia): 3.46 µM
TGI (SR leukemia): 10.9 µM
GI50 (DU-145 prostate): 4.61 µM
TGI (DU-145 prostate): 16.3 µM
GI50 (SF-539 CNS): 2.58 µM
TGI (SF-539 CNS): 7.74 µM
GI50 (RXF 393 renal): 2.06 µM
TGI (RXF 393 renal): 5.09 µM
GI50 (UO-31 renal): 2.76 µM
TGI (UO-31 renal): 12 µM
GI50 (SK-MEL-28 melanoma): 3.09 µM
TGI (SK-MEL-28 melanoma): 10.4 µM
GI50 (NCI-H226 lung): 2.32 µM
TGI (NCI-H226 lung): 6.82 µM
GI50 (HT29 colon): 3.27 µM
TGI (HT29 colon): 10.2 µM
GI50 (HS 578T breast): 4.54 µM
TGI (HS 578T breast): 42.6 µM
GI50 (M14 melanoma): 2.86 µM
TGI (M14 melanoma): 7.24 µM
GI50 (HOP-62 NSCLC): 2.27 µM
TGI (HOP-62 NSCLC): 5.16 µM
GI50 (OVCAR-8 ovarian): 2.81 µM
TGI (OVCAR-8 ovarian): 9.18 µM
GI50 (NCI-H460 lung): 2.85 µM
TGI (NCI-H460 lung): 8.3 µM
GI50 (MDA-MB-231 breast): 2.16 µM
TGI (MDA-MB-231 breast): 4.95 µM
GI50 (T-47D breast): 3.03 µM
TGI (T-47D breast): 9.94 µM
GI50 (NCI-H23 lung): 2.07 µM
TGI (NCI-H23 lung): 5.5 µM
GI50 (NCI-H522 lung): 2.36 µM
TGI (NCI-H522 lung): 6.05 µM
GI50 (SK-MEL-5 melanoma): 1.75 µM
TGI (SK-MEL-5 melanoma): 3.59 µM

— PubChem BioAssay (NCI)
